Measurements from PubChem BioAssay AID250 (DTP/NCI, 2004).
Values joined by “and” are separate entries in the source; they are usually repeats but may differ in a detail not shown here. Equal values may be shown once. Inconclusive results and toxic doses are left out.

Test system: BDF1 mice, L1210 leukemia sc, survival T/C
Test: NCI In Vivo Anticancer Drug Screen. Data for tumor model L1210 Leukemia (subcutaneous) in B6D2F1 (BDF1) mice
Conditions: higher = longer survival
Procedure: The antitumor activity of compounds was measured in mice bearing transplantable tumors. Survival or tumor size were measured and the results are expressed as the measurement made in the treated group (T) divided by the measurement made in the vehicle treated control group (C). The tumor model used in this assay is L1210 Leukemia (subcutaneous) in B6D2F1 (BDF1) mice

[1] = endpoint: median survival time, dose: 8.4 mg/kg/injection, schedule: Q01DX Z (sc), vehicle: methylcellulose (MC)
[2] = endpoint: median survival time, dose: 23.0 mg/kg/injection, schedule: Q01DX Z (sc), vehicle: methylcellulose (MC)
[3] = endpoint: median survival time, dose: 39.0 mg/kg/injection, schedule: Q01DX Z (sc), vehicle: methylcellulose (MC)
[4] = endpoint: median survival time, dose: 65.0 mg/kg/injection, schedule: Q01DX Z (sc), vehicle: methylcellulose (MC)
[5] = endpoint: median survival time, dose: 108.0 mg/kg/injection, schedule: Q01DX Z (sc), vehicle: methylcellulose (MC)
[6] = endpoint: median survival time, dose: 1.8 mg/kg/injection, schedule: Q01DX Z (sc), vehicle: saline
[7] = endpoint: median survival time, dose: 3.0 mg/kg/injection, schedule: Q01DX Z (sc), vehicle: saline
[8] = endpoint: median survival time, dose: 5.0 mg/kg/injection, schedule: Q01DX Z (sc), vehicle: saline

O=c1ccn(C2OC(CO)C(O)C2O)c(=O)[nH]1 (stereo not drawn)
T/C (endpoint: median survival time, dose: 65.0 mg/kg/injection, schedule: Q01DX Z (sc), vehicle: saline): 100 % of control | T/C (endpoint: median survival time, dose: 108.0 mg/kg/injection, schedule: Q01DX Z (sc), vehicle: saline): 100 % of control | T/C (endpoint: median survival time, dose: 180.0 mg/kg/injection, schedule: Q01DX Z (sc), vehicle: saline): 95 % of control and 111 % of control | T/C (endpoint: median survival time, dose: 300.0 mg/kg/injection, schedule: Q01DX Z (sc), vehicle: saline): 90 % of control and 100 % of control | T/C (endpoint: median survival time, dose: 500.0 mg/kg/injection, schedule: Q01DX Z (sc), vehicle: saline): 90 % of control and 100 % of control | T/C (endpoint: median survival time, dose: 833.0 mg/kg/injection, schedule: Q01DX Z (sc), vehicle: saline): 100 % of control | T/C (endpoint: median survival time, dose: 1388.0 mg/kg/injection, schedule: Q01DX Z (sc), vehicle: saline): 100 % of control

Nc1[nH]c(=O)nc2[nH]ncc12
T/C (endpoint: median survival time, dose: 46.8 mg/kg/injection, schedule: Q01DX Z (sc), vehicle: methylcellulose (MC)): 100 % of control | T/C (endpoint: median survival time, dose: 78.0 mg/kg/injection, schedule: Q01DX Z (sc), vehicle: methylcellulose (MC)): 100 % of control | T/C (endpoint: median survival time, dose: 130.0 mg/kg/injection, schedule: Q01DX Z (sc), vehicle: methylcellulose (MC)): 100 % of control | T/C (endpoint: median survival time, dose: 216.0 mg/kg/injection, schedule: Q01DX Z (sc), vehicle: methylcellulose (MC)): 108 % of control | T/C (endpoint: median survival time, dose: 360.0 mg/kg/injection, schedule: Q01DX Z (sc), vehicle: methylcellulose (MC)): 104 % of control | T/C (endpoint: median survival time, dose: 600.0 mg/kg/injection, schedule: Q01DX Z (sc), vehicle: methylcellulose (MC)): 100 % of control

CNC=O
T/C (endpoint: median survival time, dose: 112.0 mg/kg/injection, schedule: Q01DX Z (sc), vehicle: saline): 100 % of control | T/C (endpoint: median survival time, dose: 187.0 mg/kg/injection, schedule: Q01DX Z (sc), vehicle: saline): 104 % of control | T/C (endpoint: median survival time, dose: 311.0 mg/kg/injection, schedule: Q01DX Z (sc), vehicle: saline): 116 % of control

C=CC(CN1CC1)OC(C)=O (stereo not drawn)
T/C (endpoint: median survival time, dose: 2.8 mg/kg/injection, schedule: Q01DX Z (sc), vehicle: saline): 111 % of control | T/C (endpoint: median survival time, dose: 4.7 mg/kg/injection, schedule: Q01DX Z (sc), vehicle: saline): 122 % of control | T/C (endpoint: median survival time, dose: 7.8 mg/kg/injection, schedule: Q01DX Z (sc), vehicle: saline): 150 % of control | T/C (endpoint: median survival time, dose: 13.0 mg/kg/injection, schedule: Q01DX Z (sc), vehicle: saline): 188 % of control | T/C (endpoint: median survival time, dose: 22.0 mg/kg/injection, schedule: Q01DX Z (sc), vehicle: saline): 155 % of control | T/C (endpoint: median survival time, dose: 60.0 mg/kg/injection, schedule: Q01DX Z (sc), vehicle: saline): 122 % of control

COc1cc([C@@H]2c3cc4c(cc3[C@H](OC(=O)CCCC(=O)O)[C@H]3COC(=O)[C@H]23)OCO4)cc(OC)c1OC
T/C (endpoint: median survival time, dose: 5.0 mg/kg/injection, schedule: Q01DX Z (sc), vehicle: water): 100 % of control | T/C (endpoint: median survival time, dose: 8.4 mg/kg/injection, schedule: Q01DX Z (sc), vehicle: water): 109 % of control | T/C (endpoint: median survival time, dose: 14.0 mg/kg/injection, schedule: Q01DX Z (sc), vehicle: water): 113 % of control | T/C (endpoint: median survival time, dose: 23.0 mg/kg/injection, schedule: Q01DX Z (sc), vehicle: water): 113 % of control | T/C (endpoint: median survival time, dose: 39.0 mg/kg/injection, schedule: Q01DX Z (sc), vehicle: water): 118 % of control | T/C (endpoint: median survival time, dose: 65.0 mg/kg/injection, schedule: Q01DX Z (sc), vehicle: water): 118 % of control | T/C (endpoint: median survival time, dose: 108.0 mg/kg/injection, schedule: Q01DX Z (sc), vehicle: water): 118 % of control

Cc1cccc2c(Nc3ccc(NS(C)(=O)=O)cc3)c3ccccc3nc12
T/C (endpoint: mean survival time, dose: 10.0 mg/kg/injection, schedule: Q01DX009 (ip), vehicle: saline): 103 % of control | T/C (endpoint: mean survival time, dose: 20.0 mg/kg/injection, schedule: Q01DX009 (ip), vehicle: saline): 107 % of control | T/C (endpoint: mean survival time, dose: 40.0 mg/kg/injection, schedule: Q01DX009 (ip), vehicle: saline): 106 % of control | T/C (endpoint: mean survival time, dose: 80.0 mg/kg/injection, schedule: Q01DX009 (ip), vehicle: saline): 100 % of control | T/C (endpoint: median survival time, dose: 10.0 mg/kg/injection, schedule: Q01DX009 (ip), vehicle: saline with Tween-80): 106 % of control | T/C (endpoint: median survival time, dose: 20.0 mg/kg/injection, schedule: Q01DX009 (ip), vehicle: saline with Tween-80): 112 % of control

ClCCn1c2ccccc2c2ccccc21
T/C (endpoint: median survival time, dose: 5.0 mg/kg/injection, schedule: Q01DX Z (sc), vehicle: methylcellulose (MC)): 100 % of control | T/C [1]: 100 % of control | T/C (endpoint: median survival time, dose: 14.0 mg/kg/injection, schedule: Q01DX Z (sc), vehicle: methylcellulose (MC)): 100 % of control | T/C [2]: 100 % of control | T/C [3]: 100 % of control | T/C [4]: 100 % of control | T/C [5]: 100 % of control

CN1c2c(nc(N)[nH]c2=O)NCC1CCNc1ccc(C(=O)NC(CCC(=O)O)C(=O)O)cc1 (stereo not drawn)
T/C (endpoint: median survival time, dose: 6.25 mg/kg/injection, schedule: Q01DX012 (ip), vehicle: other): 100 % of control | T/C (endpoint: median survival time, dose: 12.5 mg/kg/injection, schedule: Q01DX012 (ip), vehicle: other): 111 % of control | T/C (endpoint: median survival time, dose: 25.0 mg/kg/injection, schedule: Q01DX012 (ip), vehicle: other): 122 % of control | T/C (endpoint: median survival time, dose: 50.0 mg/kg/injection, schedule: Q01DX012 (ip), vehicle: other): 122 % of control

O=C(O)CS
T/C [3]: 100 % of control | T/C [4]: 100 % of control | T/C [5]: 100 % of control

NC(Cc1c[nH]c2ccc(N(CCCl)CCCl)cc12)C(=O)O (stereo not drawn)
T/C (endpoint: median survival time, dose: 0.65 mg/kg/injection, schedule: Q01DX Z (sc), vehicle: methylcellulose (MC)): 105 % of control | T/C (endpoint: median survival time, dose: 1.08 mg/kg/injection, schedule: Q01DX Z (sc), vehicle: methylcellulose (MC)): 111 % of control | T/C (endpoint: median survival time, dose: 1.8 mg/kg/injection, schedule: Q01DX Z (sc), vehicle: methylcellulose (MC)): 123 % of control | T/C [1]: 117 % of control

C[n+]1c2ccccc2nc2c(N)cc(N)cc21
T/C [6]: 100 % of control | T/C [7]: 100 % of control | T/C [8]: 100 % of control | T/C (endpoint: median survival time, dose: 8.4 mg/kg/injection, schedule: Q01DX Z (sc), vehicle: saline): 100 % of control | T/C (endpoint: median survival time, dose: 14.0 mg/kg/injection, schedule: Q01DX Z (sc), vehicle: saline): 100 % of control | T/C [2]: 105 % of control | T/C (endpoint: median survival time, dose: 23.0 mg/kg/injection, schedule: Q01DX Z (sc), vehicle: saline): 111 % of control | T/C [3]: 105 % of control | T/C (endpoint: median survival time, dose: 39.0 mg/kg/injection, schedule: Q01DX Z (sc), vehicle: saline): 111 % of control | T/C [4]: 105 % of control

CC1CC(C)(O)CC(C(O)CC2CC(=O)NC(=O)C2)C1=O (stereo not drawn)
T/C (endpoint: median survival time, dose: 0.14 mg/kg/injection, schedule: Q01DX Z (sc), vehicle: saline): 108 % of control | T/C (endpoint: median survival time, dose: 0.24 mg/kg/injection, schedule: Q01DX Z (sc), vehicle: saline): 120 % of control | T/C (endpoint: median survival time, dose: 0.39 mg/kg/injection, schedule: Q02DX Z (sc), vehicle: saline): 120 % of control | T/C (endpoint: median survival time, dose: 0.4 mg/kg/injection, schedule: Q01DX Z (sc), vehicle: saline): 116 % of control | T/C (endpoint: median survival time, dose: 0.65 mg/kg/injection, schedule: Q02DX Z (sc), vehicle: saline): 120 % of control | T/C (endpoint: median survival time, dose: 0.67 mg/kg/injection, schedule: Q01DX Z (sc), vehicle: saline): 116 % of control | T/C (endpoint: median survival time, dose: 1.08 mg/kg/injection, schedule: Q01DX Z (sc), vehicle: saline): 120 % of control | T/C (endpoint: median survival time, dose: 1.08 mg/kg/injection, schedule: Q02DX Z (sc), vehicle: saline): 120 % of control | T/C (endpoint: median survival time, dose: 1.08 mg/kg/injection, schedule: Q## X Z (sc), vehicle: saline): 110 % of control | T/C (endpoint: median survival time, dose: 1.12 mg/kg/injection, schedule: Q01DX Z (sc), vehicle: saline): 104 % of control | T/C [6]: 120 % of control | T/C (endpoint: median survival time, dose: 1.8 mg/kg/injection, schedule: Q02DX Z (sc), vehicle: saline): 120 % of control | T/C (endpoint: median survival time, dose: 1.8 mg/kg/injection, schedule: Q## X Z (sc), vehicle: saline): 110 % of control | T/C (endpoint: median survival time, dose: 1.87 mg/kg/injection, schedule: Q01DX Z (sc), vehicle: saline): 100 % of control | T/C (endpoint: median survival time, dose: 3.0 mg/kg/injection, schedule: Q01DX001 (sc), vehicle: saline): 120 % of control | T/C [7]: 110 % of control | T/C (endpoint: median survival time, dose: 3.0 mg/kg/injection, schedule: Q## X Z (sc), vehicle: saline): 115 % of control | T/C (endpoint: median survival time, dose: 3.11 mg/kg/injection, schedule: Q01DX Z (sc), vehicle: saline): 100 % of control | T/C (endpoint: median survival time, dose: 5.0 mg/kg/injection, schedule: Q01DX001 (sc), vehicle: saline): 120 % of control | T/C [8]: 100 % of control | T/C (endpoint: median survival time, dose: 5.0 mg/kg/injection, schedule: Q## X Z (sc), vehicle: saline): 115 % of control | T/C (endpoint: median survival time, dose: 8.4 mg/kg/injection, schedule: Q02DX Z (sc), vehicle: saline): 110 % of control | T/C (endpoint: median survival time, dose: 8.4 mg/kg/injection, schedule: Q## X Z (sc), vehicle: saline): 120 % of control | T/C (endpoint: median survival time, dose: 14.0 mg/kg/injection, schedule: Q02DX Z (sc), vehicle: saline): 100 % of control | T/C (endpoint: median survival time, dose: 14.0 mg/kg/injection, schedule: Q## X Z (sc), vehicle: saline): 120 % of control
